Reference: USRE30241E, “Esters of 3-(hydroxy or hydroxymethyl)-4-hydroxyphenyl aminomethyl ketones” (Sterling Drug Inc., priority 1970, dated 1980)
Read-outs that look alike come from different tables or passages of the source.

Key:
[1] = system: carbachol- or histamine-induced bronchoconstriction; experiment: Bronchodilator Test Method I, anesthetized dog, intravenous activity; format: in vivo; details: Canis lupus familiaris, read-out: Bronchodilatation; for inhibition in vivo at 0.068 mg/kg: 68 mcg/kg i.v.; for inhibition in vivo at 0.137 mg/kg: 137 mcg/kg i.v.; for inhibition in vivo at 0.274 mg/kg: 274 mcg/kg i.v.; for inhibition in vivo at 0.0012 mg/kg: 1.2 mcg/kg i.v.; for inhibition in vivo at 0.006 mg/kg: 6.0 mcg/kg i.v.; for inhibition in vivo at 0.025 mg/kg: 25 mcg/kg i.v.; for inhibition in vivo at 0.03 mg/kg: 30 mcg/kg i.v.; for inhibition in vivo at 0.24 mg/kg: 240 mcg/kg i.v.; for inhibition in vivo at 0.0028 mg/kg: 2.8 mcg/kg i.v.; for inhibition in vivo at 0.0056 mg/kg: 5.6 mcg/kg i.v.
Procedure: Bronchodilator activity was tested in anesthetized dogs (Test Method I) and in vitro on the perfused guinea pig lung (Test Method II), using the following pharmacological test procedures
(§1) Male and female dogs weighing 9-18 kg. each were anesthetized with pentobarbital sodium (30 mg./kg. i.v.). Each animal, with thorax opened at the midsternum, was maintained under artificial ventilation using a constant volume pump (250 ml./stroke; 10 to 12 strokes per minute) attached to the tracheal cannula. The flow of air was controlled by a glass or plastic valve which closed and opened respectively on inflow and outflow of the air to and from the tracheal cannula. Bronchoconstriction and/or bronchodilatation were measured from changes in the basal airway pressure reflected by a transducer attached to the sidearm of the cannula relayed to a polygraph.
(§2) Control bronchoconstrictions were induced by intravenous injections of carbachol (choline chloride carbamate) in doses ranging from 4 to 6 micrograms per kilogram or histamine diphosphate in doses ranging from 35 to 45 micrograms per kilogram.
Solutions of the test compounds were prepared in distilled water or in saline (for infusion). […] These solutions were then tested for bronchodilator activity in three ways, viz. (1) by mixing a graded dose of test compound with the constant does of carbachol or histamine in a syringe and injecting the mixture into the femoral vein of the dog, (2) by producing the bronchoconstriction first and injecting the test compound at the time of maximum constriction, and (3) by injecting the test compound first followed by carbachol or histamine in 1-10 minutes. Injections were repeated at 20-30 minutes. Bronchodilator values were obtained by measuring the areas under the response polygraph tracings (the first 5 munite period) of carbachol or histamine controls and of the experimentals using a planimeter. Decrease in the area thus measured was expressed as a percent bronchodilatation in reference to the area of control carbachol or histamine constriction. The mean bronchodilatations (the reductions in constrictions) were plotted against the doses administered and the mean effective dose (ED50) was estimated in micrograms/kilogram from the does-response curves. Blood pressure recording was taken from the femoral artery using an arterial transducer relayed to a polygraph.

[2] = system: carbachol- or histamine-induced bronchoconstriction; experiment: Bronchodilator Test Method I, anesthetized dog, intraduodenal activity; format: in vivo; details: Canis lupus familiaris, read-out: Bronchodilation; for inhibition in vivo at 0.068 mg/kg: 68 mcg/kg (salt) intraduodenal; for inhibition in vivo at 0.136 mg/kg: 136 mcg/kg (salt) intraduodenal
Procedure: as §1
as §2, with “kilogram. In the majority of test animals, the above doses of constrictor agents produced a 100-200 percent increase in the normal airway pressure or amplitude.” for “kilogram.”
Injections were repeated at 20-30 minutes.
In intraduodenal studies, in the dog prepared for bronchodilation measurements, the duodenal segment of the small intestine was made easily accessible through a small mid-line incision in the abdomen. The test solution was injected into the duodenum using a fine needle. Commencing 5 minutes after medication, the degree and duration of bronchodilation were tested by injecting a control dose of carbachol or histamine at intervals of 30-60 minutes until the recovery or near-recovery was apparent. In some dogs showing an early recovery, a reference drug was also tested in the same dog 1.5-2 hours after the first medicine.

[3] = system: guinea pig bronchioles constricted by carbachol; experiment: Bronchodilator Test Method II, in vitro perfused guinea pig lung
Procedure: In this method bronchodilator activity in vitro was determined by testing the effect of graded doses of the test compounds on guinea pig bronchioles constricted by carbachol, using the technique reported by Sollman and von Oettingen, Proc. Soc, Exp. Biol. Med., 25,692 (1928) as modified by Tainter, Pedden, and James, J. Pharm. Exp. Ther., 51, 371 (1934) and by Luduena, von Euler, Tullar, and Lands, Arch. intern. Pharmacol., III, 392 (1957).

With Cc1cccc(C(=O)Oc2ccc(C(O)CNC(C)(C)C)cc2OC(=O)c2cccc(C)c2)c1 (stereo not drawn) [Example 112, 3,4-bis(m-toluyloxy)-alpha-(tert-butylaminomethyl)benzyl alcohol] the inhibition in vivo at 0.068 mg/kg ([1]; 5 min, 5 min) was 38%, the inhibition in vivo at 0.137 mg/kg ([1]; 5 min, 5 min) was 80% and the inhibition in vivo at 0.274 mg/kg ([1]; 5 min, 5 min) was 80%. It also gave an inhibition in vivo at 0.068 mg/kg ([1]; 0.5 h, 30 min) of 43%, an inhibition in vivo at 0.137 mg/kg ([1]; 0.5 h, 30 min) of 60% and an inhibition in vivo at 0.274 mg/kg ([1]; 0.5 h, 30 min) of 74%. For the same compound, the inhibition in vivo at 0.068 mg/kg ([1]; 1 h, 60 min) was 27%, the inhibition in vivo at 0.137 mg/kg ([1]; 1 h, 60 min) was 50% and the inhibition in vivo at 0.274 mg/kg ([1]; 1 h, 60 min) was 57%. For the same compound, the inhibition in vivo at 0.137 mg/kg ([1]; 2 h, 120 min) was 37%, the inhibition in vivo at 0.274 mg/kg ([1]; 2 h, 120 min) was 54% and the inhibition in vivo at 0.137 mg/kg ([1]; 3 h, 180 min) was 8%. For the same compound, the inhibition in vivo at 0.274 mg/kg ([1]; 3 h, 180 min) was 33%, the inhibition in vivo at 0.274 mg/kg ([1]; 4 h, 240 min) was 38% and the inhibition in vivo at 0.274 mg/kg ([1]; 4.5 h, 270 min) was 25%. For the same compound, the inhibition in vivo at 0.068 mg/kg ([2]; 5 min, 5 min) was 50%, the inhibition in vivo at 0.136 mg/kg ([2]; 5 min, 5 min) was 42% and the inhibition in vivo at 0.068 mg/kg ([2]; 10 min, 10 min) was 0%. The inhibition in vivo at 0.136 mg/kg ([2]; 10 min, 10 min) was 59%, the inhibition in vivo at 0.136 mg/kg ([2]; 0.5 h, 30 min) was 67% and the inhibition in vivo at 0.136 mg/kg ([2]; 1 h, 60 min) was 53%. For the same compound, the inhibition in vivo at 0.136 mg/kg ([2]; 2 h, 120 min) was 0%, the ED50 ([3]; carbachol (Doryl) 1:5 million) was 4.4 µg (base) and the “Duration, Mean” value ([3]; dose 10 mcg (base)) was 104.1 ± 34.9 min.

For CC(=O)Oc1ccc(C(O)CNC(C)(C)C)cc1OC(=O)c1ccccc1C (stereo not drawn) [Example 147, 3-(o-toluyloxy)-4-acetoxy-alpha-(tert-butylaminomethyl)benzyl alcohol methanesulfonate], the inhibition in vivo at 0.0012 mg/kg ([1]; 5 min, 5 min) was 36%, the inhibition in vivo at 0.006 mg/kg ([1]; 5 min, 5 min) was 77% and the inhibition in vivo at 0.025 mg/kg ([1]; 5 min, 5 min) was 100%. For the same compound, the inhibition in vivo at 0.0012 mg/kg ([1]; 0.5 h, 30 min) was 3%, the inhibition in vivo at 0.006 mg/kg ([1]; 0.5 h, 30 min) was 9% and the inhibition in vivo at 0.025 mg/kg ([1]; 0.5 h, 30 min) was 32%. The inhibition in vivo at 0.0012 mg/kg ([1]; 1 h, 60 min) was 0%, the inhibition in vivo at 0.006 mg/kg ([1]; 1 h, 60 min) was 0% and the inhibition in vivo at 0.025 mg/kg ([1]; 1 h, 60 min) was 12%. For the same compound, the inhibition in vivo at 0.025 mg/kg ([1]; 2 h, 120 min) was 4%, the ED50 ([3]; Doryl conc. 1:10 million) was 1.9 µg (base) and the “Duration, Mean” value ([3]; dose 5 mcg (base), Doryl conc. 1:10 million) was 15.9 ± 3.3 min.

In the case of CCC(NC1CCCC1)C(O)c1ccc(OC(=O)CC(C)C)c(OC(=O)CC(C)C)c1.Cl (stereo not drawn) [Example 138, 3,4-bis(isovaleryloxy)-alpha-[1-(cyclopentylamino)propyl]benzylalcohol hydrochloride], the inhibition in vivo at 0.03 mg/kg ([1]; 5 min, 5 min) is reported as 38%, the inhibition in vivo at 0.24 mg/kg ([1]; 5 min, 5 min) is reported as 49% and the inhibition in vivo at 0.03 mg/kg ([1]; 0.5 h, 30 min) is reported as 0%. The inhibition in vivo at 0.24 mg/kg ([1]; 0.5 h, 30 min) was 62%, the inhibition in vivo at 0.24 mg/kg ([1]; 1 h, 60 min) was 42% and the inhibition in vivo at 0.24 mg/kg ([1]; 2 h, 120 min) was 46%. The ED50 ([3]; carbachol (Doryl) 1:5 million) was 0.46 µg (base) and the “Duration, Mean” value ([3]; dose 1.5 mcg (base)) was 25.4 ± 3.5 min.

CC(C)(C)NCC(O)c1ccc(OC(=O)C2(C)CC2)c(OC(=O)C2(C)CC2)c1.Cl (stereo not drawn) [Example 13, 3,4-bis(1-methylcyclopropanecarbonyloxy)-alpha-(tert-butylaminomethyl)benzyl alcohol hydrochloride] gave an inhibition in vivo at 0.0028 mg/kg ([1]; 2 min, 2 min) of 52%, an inhibition in vivo at 0.0056 mg/kg ([1]; 2 min, 2 min) of 69% and an inhibition in vivo at 0.0028 mg/kg ([1]; 0.5 h, 30 min) of 48%. It also gave an inhibition in vivo at 0.0056 mg/kg ([1]; 0.5 h, 30 min) of 34%, an inhibition in vivo at 0.0028 mg/kg ([1]; 1 h, 60 min) of 0% and an inhibition in vivo at 0.0056 mg/kg ([1]; 1 h, 60 min) of 10%. For the same compound, the ED50 ([3]; carbachol (Doryl) 1:5 million) was 0.45 µg (base) and the “Duration, Mean” value ([3]; dose 0.79 mcg (base)) was 15 ± 1.7 min.
